The record followed here is US7742877B1, “Methods, apparatus and computer program products for formulating culture media” (Becton, Dickinson & Company, priority 1999, dated 2010).

The test system of experiment [1] is mammalian hybridoma cells producing and secreting antibodies. Put plainly: Antibody production by hybridoma cells cultured in medium containing a test peptide (nearest neighbor example, model data). The experiment is classed as cell-based. The settings on record: for Observed Activity (antibody production): candidate peptides, (hypothetical) biological activities; for Biol. Act. (antibody production): training set peptide added to hybridoma culture medium, model data. The source says:
One particular, and preferred, method of identifying compounds based on a distance function is nearest neighbor analysis. This method can be illustrated using the following simplified example with model data.
According to this illustrative example, the present invention can be used to identify a peptide as a culture medium component, e.g., for mammalian hybridoma cells producing and secreting antibodies. In particular, it is desirable to identify peptides, which when added to culture medium, will promote antibody production by hybridoma cells at a level greater than a test requirement. Four test peptides (Asp-Lys-Ala-His (SEQ. ID NO:23), Asp-Trp-Pro-Ala (SEQ. ID NO:24), Glu-Ser-Met-His (SEQ. ID NO:25), Gly-Val-Asn-Glu (SEQ. ID NO:26); i.e., a training set) may be selected from a peptide library as described above with respect to the QSAR example. Values to describe the various parameters of the peptides, for example, hydrophobicity (i.e., mlogp), molecular weight, and total charge may be calculated for each peptide (Table 5). Each peptide may be added to hybridoma culture medium and antibody production (i.e., biological activity) may be measured for the cells cultured in each culture medium (values shown in Table 5).
The peptides in the candidate set will then be assigned predicted indicia of the property based the closest peptide in the training set (Table 9).

The subject of experiment [2] is bacterial cells genetically engineered to produce a heterologous protein of interest. Nature of the experiment: Protein production by bacterial cells grown in culture medium containing a test peptide (QSAR example, exemplary data). The note with it: peptide included in culture medium of bacterial cells; exemplary (hypothetical) data. The experiment is classed as cell-based. The source says:
The present invention may be used to identify a peptide to include as a component of a culture medium. The culture medium may be used to culture bacterial cells genetically engineered to produce a heterologous protein of interest. Accordingly, it would be desirable to identify a peptide which when included in a culture medium will enhance protein production by bacterial cells grown in the culture medium (i.e., to satisfy a test requirement).
In this example, eight test peptides are selected from a tetrapeptide library: Asp-Lys-Ala-His (SEQ. ID. NO:23), Asp-Trp-Pro-Ala (SEQ. ID. NO:24), Glu-Ser-Met-His (SEQ. ID. NO:25), Gly-Val-Asn-Glu (SEQ. ID. NO:26), His-Glu-Asp-Val (SEQ. ID. NO:27), Glu-Thr-Gly-Ser (SEQ. ID. NO:28), His-Tyr-Gly-Val (SEQ. ID. NO:29, and Asp-Phe-Gly-Val (SEQ. ID. NO:30); Table 3). The test peptides may be selected from the library by any means known in the art. The values for three parameters (molecular weight, total charge, and mlogp, i.e., hydrophobicity) may be determined for each of the eight peptides. The indicia of the property, in this example a particular biological activity (i.e., protein production), may be determined for the eight peptides as well.

In the case of Asp-Phe-Gly-Val (DFGV), in experiment [1], the “Observed Activity (antibody production)” value stood at 22.0. Also, the “Biol. Act. (protein production)” value in experiment [2] was found to be 22.0.
For the substance Asp-Lys-Ala-His (DKAH), in experiment [1], the “Biol. Act. (antibody production)” value was found to be 15.0. Moreover, the “Biol. Act. (protein production)” value in experiment [2] is on record as 15.0.
On to Asp-Trp-Pro-Ala (DWPA), for which, in experiment [1], the “Biol. Act. (antibody production)” value is 25.0. Besides, in experiment [2], the “Biol. Act. (protein production)” value was determined as 25.0.
For the substance Glu-Ser-Met-His (ESMH), the “Biol. Act. (antibody production)” value in experiment [1] is given as 19.3. The “Biol. Act. (protein production)” value in experiment [2] came to 19.3.
For His-Glu-Asp-Val (HEDV), in experiment [1], the “Observed Activity (antibody production)” value stood at 18.5. Besides, the “Biol. Act. (protein production)” value in experiment [2] was determined as 18.5.
For His-Tyr-Gly-Val (HYGV), the “Observed Activity (antibody production)” value in experiment [1] turned out to be 23.6. Moreover, the “Biol. Act. (protein production)” value in experiment [2] is recorded as 23.6.
As to Gly-Val-Asn-Glu (GVNE), the “Biol. Act. (antibody production)” value in experiment [1] is 14.4. Moreover, the “Biol. Act. (protein production)” value in experiment [2] was 14.4.
In the case of Glu-Thr-Gly-Ser (ETGS), the “Observed Activity (antibody production)” value in experiment [1] is recorded as 10.2. In addition, the “Biol. Act. (protein production)” value in experiment [2] was determined as 10.2.
